Measurements reported in patent US20050159431A1, “Substituted alkyl uracils and thereof” (Bayer Healthcare AG, priority 2002, published 2005).

target: T1, human PARS enzyme (Homo sapiens, UniProt P09874); test: PARS inhibition test (in vitro); format: biochemical; conditions: recombinant human PARS, [14C]-NAD+, 10 min room temperature
T1 construct: made in house; host or cells: baculovirus expression system (Bac-To-Bac, Life Technologies)
Experimental: The activity of substances as PARS inhibitors is tested in accordance with the method of Ushiro [Ushiro et al., J. Biol. Chem., 262, 2352-2357 (1987)]. To this end, recombinantly expressed (Bac-To-Bac, Baculo virus expression system; Instruction Manual; Life Technologies) human PARS enzyme is activated in a buffer which contains radioactively labeled [^14C]-NAD^+. The poly(ADP-ribose) units that are synthesized are precipitated using trichloroacetic acid, and the proportion of labeled protein is determined by scintillation measurements. Incubation of PARS with inhibitors leads to a decrease in the proportion of labeled protein and thus to a reduced radioactivity.
Inhibition of the PARS activity can be represented as a percentage of PARS inhibition in incubation with different substances or as the concentration at which 50% of the enzyme is inhibited, i.e. as IC50 value.
The compounds to be tested are dissolved in DMSO (dimethyl sulfoxide) at a concentration of 10 mM. The assay is carried out in deep 96-well plates. Per well, 70 μl of buffer, 10 μl of DNA, 10 μl of histones, 10 μl of NAD^+/[^14C]-NAD^+ mix and 0.5-5 μl of PARS (about 10,000 cpm/test) are combined with 1 μl of the compounds (final concentration 0.001-10 μM), to give a total volume of about 110 μl. The mixture is incubated at room temperature for 10 min, and 1 ml of ice-cold TCA solution is then added, and the precipitated labeled proteins are sucked onto a filter paper (printed filter mat A; from Wallac) using a harvester (from Scatron). The filter is dried, sealed together with a scintillation sheet (Multilex A; from Wallac) and measured in a p counter for 1 min per well.
In addition to the substances described in this application, the known PARS inhibitor 1,5-dihydroxyisoquinoline (DHCH) is tested as reference substance. The results of the test are stated as IC50 values for the inhibition of PARS.

T1 sequence (P09874 whole entry): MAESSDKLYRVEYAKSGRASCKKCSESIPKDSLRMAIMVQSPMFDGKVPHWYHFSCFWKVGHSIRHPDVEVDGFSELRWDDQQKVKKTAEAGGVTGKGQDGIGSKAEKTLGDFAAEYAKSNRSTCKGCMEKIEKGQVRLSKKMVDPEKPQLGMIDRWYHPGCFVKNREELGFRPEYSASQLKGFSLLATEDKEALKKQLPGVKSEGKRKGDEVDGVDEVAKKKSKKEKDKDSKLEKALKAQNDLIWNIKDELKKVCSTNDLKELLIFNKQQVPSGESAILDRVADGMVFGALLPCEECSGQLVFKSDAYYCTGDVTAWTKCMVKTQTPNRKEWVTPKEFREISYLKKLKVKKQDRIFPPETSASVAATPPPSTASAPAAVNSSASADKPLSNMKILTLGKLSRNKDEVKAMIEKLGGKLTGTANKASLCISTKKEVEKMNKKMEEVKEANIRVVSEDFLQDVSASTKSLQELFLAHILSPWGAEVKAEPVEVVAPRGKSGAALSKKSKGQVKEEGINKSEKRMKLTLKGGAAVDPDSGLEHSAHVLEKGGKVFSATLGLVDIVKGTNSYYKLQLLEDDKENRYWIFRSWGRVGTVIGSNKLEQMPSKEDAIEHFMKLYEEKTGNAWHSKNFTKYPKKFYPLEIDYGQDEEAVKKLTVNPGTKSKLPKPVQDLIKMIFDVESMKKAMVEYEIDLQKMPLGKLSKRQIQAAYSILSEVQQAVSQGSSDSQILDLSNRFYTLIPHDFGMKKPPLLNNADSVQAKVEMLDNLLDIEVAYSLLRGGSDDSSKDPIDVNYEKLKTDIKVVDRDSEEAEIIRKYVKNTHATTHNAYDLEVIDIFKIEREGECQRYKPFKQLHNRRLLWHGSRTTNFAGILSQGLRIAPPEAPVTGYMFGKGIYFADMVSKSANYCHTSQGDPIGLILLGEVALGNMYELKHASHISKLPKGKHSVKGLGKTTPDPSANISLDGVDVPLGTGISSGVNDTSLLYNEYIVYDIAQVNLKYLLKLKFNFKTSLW

SMILES | IC50 [nM]
Oc1cccc2c(O)nccc12 [DHCH, 1,5-dihydroxyisoquinoline, reference compound] | 300
O=c1[nH]c(=O)n(CCc2ccc(Br)cc2)c2c1CSCC2 [Example 1, 1-[2-(4-Bromophenyl)ethyl]-1,5,7,8-tetrahydro-2H-thiopyrano[4,3-d]pyrimidine-2,4(3H)-dione] | 60
O=c1[nH]c(=O)n(CCc2ccc(CNCCO)cc2)c2c1CSCC2 [Example 6, 1-[2-(4-{[(2-Hydroxyethyl)amino]methyl}phenyl)ethyl]-1,5,7,8-tetrahydro-2H-thiopyrano-[4,3-d]pyrimidine-2,4(3H)-dione] | 50
Cc1cn(CCCn2c3c(c(=O)[nH]c2=O)CSCC3)cn1 [Example 8, 1-[3-(4-Methyl-1H-imidazol-1-yl)propyl]-1,5,7,8-tetrahydro-2H-thiopyrano[4,3-d]pyrimidine-2,4(3H)-dione] | 85
O=c1[nH]c(=O)n(CCc2ccc([N+](=O)[O-])cc2)c2c1CSCC2 [Example 40] | 20
Cc1[nH]ncc1CCCn1c2c(c(=O)[nH]c1=O)CSCC2 [Example 53] | 80
O=c1[nH]c(=O)n(Cc2cccnc2)c2c1CSCC2 [Example 56] | 75
CC(C)N1CCN(C(=O)c2ccc(CCn3c4c(c(=O)[nH]c3=O)CSCC4)cc2)CC1 [Example 62] | 800

system: MHEC5-T cells; test: Cell protection assay (in vitro), H2O2-induced cell death; format: cell-based; conditions: MHEC5-T endothelial cells, 3 mM H2O2, 5 hours, Alamar blue; 10 μM DHCH defined as 100% protection; read-out: Cell protection (in vitro) EC50
Experimental: In accordance with a method described by Bowes [Bowes et al., Br. J. Pharmacol., 124, 1760-1766 (1998)], the ability of PARS inhibitors to protect cells against cell death induced by incubation with H2O2 is examined in a cell protection assay. Incubation of endothelial cells with H2O2 results in the generation of DNA strand breaks which in turn activate PARS, resulting in a drastic energy decrease in the cells and in cell death. Living cells are quantified by a fluorimetric redox indicator (Alamar blue), which is converted in the electron transport system of the mitochondria.
Specifically, 7500 MHEC5-T cells/well (DSM ACC 336; German collection of microorganisms and cell cultures) are sown in 4 replications on a 96-well plate. After 24 hours, the cells are incubated with 3 mM aqueous H2O2 solution and differing concentrations of the substances in the presence of 6% by volume of Alamar blue solution in the medium at 37° C. for 5 hours. The reference substance used is 10 μM 1,5-dihydroxyisoquinoline (DHCH) solution. After the incubation, the fluorescence is measured at an excitation wavelength of 530-560 nm and an emission wavelength of 590 nm. The percentage for the cell protection is calculated as the difference between the living cells treated only with H2O2 and the cells treated with H2O2 and PARS inhibitors. The internal standard used is 10 μM DHCH, which is defined as 100% protection. The results obtained for the other substances are compared to this value.
The EC50 values indicate the concentration at which 50% of maximum cell protection is reached, maximum protection by 10 μM DHCH being defined as 100%. DHCH has an EC50 value of 2 μM.

SMILES | EC50 [nM]
O=Cc1ccc(CCn2c3c(c(=O)[nH]c2=O)CSCC3)cc1 [Example 5] | 150
O=c1[nH]c(=O)n(CCc2ccc(CN3CCCCC3)cc2)c2c1CSCC2 [Example 61] | 100
O=c1[nH]c(=O)n(CCCn2cnc([N+](=O)[O-])c2)c2c1CSCC2 [Example 65] | 90
O=c1[nH]c(=O)n(CCc2cccnc2)c2c1CSCC2 [Example 66] | 650
O=c1[nH]c(=O)n(CCCn2ccnc2)c2c1CSCC2 [Example 76] | 500

same assay, conditions: MHEC5-T endothelial cells, 3 mM H2O2; maximum protection by 10 μM DHCH defined as 100%; read-out: EC50 value cell protection

SMILES | EC50 [nM]
Oc1cccc2c(O)nccc12 [DHCH, 1,5-dihydroxyisoquinoline, reference compound] | 2000
